Laboratory results published in US4572909A, “2-(Secondary aminoalkoxymethyl) dihydropyridine derivatives as anti-ischaemic and antihypertensive agents” (Pfizer Inc., priority 1982, dated 1986).
Counter-ions that a name gives are not always drawn. Like-named read-outs stand apart in the source and are kept apart here.

Test system: rat aorta
Experiment: reduction of calcium-induced contraction (response to calcium chloride) of spirally cut strips of rat aorta in vitro
Assay type: cell-based
Protocol: The ability of the compounds to inhibit the movement of calcium into the cell is shown by their effectiveness in reducing the response of isolated […] to an increase in calcium ion concentration in vitro. The test is performed by mounting spirally cut strips of rat aorta with one end fixed and the other attached to a force transducer. The tissue is immersed in a bath of physiological saline solution containing potassium ions at a concentration of 45 millimolar and no calcium. Calcium chloride is added to the bath with a pipette to give a final calcium ion concentration of 2 millimolar. The change in tension caused by the resulting contraction of the tissue is noted. The bath is drained and replaced with fresh saline solution and, after 45 minutes, the test is repeated with the particular compound under test present in the saline solution. The concentration of compound required to reduce the response by 50% is recorded.

[1] = 0.75 h; isolated rat aorta strips; 45 millimolar potassium; 2 millimolar calcium; retest after 45 minutes with compound; read-out: molar concentration of the compounds required to reduce the response by 50% (IC50)
[2] = ranking among the tested Examples
[3] = read-out: molar concentration of the compounds required to reduce the response by 50% (IC50); isolated rat aorta strips; 45 millimolar potassium; 2 millimolar calcium; retest after 45 minutes with compound
[4] = isolated rat aorta strips; 45 millimolar potassium; 2 millimolar calcium; retest after 45 minutes with compound; read-out: molar concentration of the compounds required to reduce the response by 50% (IC50)

Compound	IC50 [1]	activity ranking by IC50 (the smaller the concentration the more active the compound) [2]	other results
CCOC(=O)C1=C(COCCN)NC(C)=C(C(=O)OC)C1c1ccccc1 (stereo not drawn) [Example 14]	160 nM	–	–
CCOC(=O)C1=C(COCCNCC(=O)NC)NC(C)=C(C(=O)OC)C1c1ccccc1Cl (stereo not drawn) [Example 20]	22 nM	–	–
CCOC(=O)C1=C(COCCNC)NC(C)=C(C(=O)OC)C1c1ccccc1 (stereo not drawn) [Example 2]	32 nM	–	–
CCOC(=O)C1=C(COCCN)NC(C)=C(C(=O)OC)C1c1ccccc1Cl.O=C(O)/C=C\C(=O)O (stereo not drawn) [Example 22, 2-[(2-aminoethoxy)methyl]-4-(2-chlorophenyl)-3-ethoxycarbonyl-5-methoxycarbonyl-6-methyl-1,4-dihydropyridine maleate]	–	most active compounds	IC50 [3]: 3.2 nM
CCOC(=O)C1=C(COCCNC)NC(C)=C(C(=O)OC)C1c1ccccc1F (stereo not drawn) [Example 3]	20 nM	–	–
CCOC(=O)C1=C(COCCNC)NC(C)=C(C(=O)OC)C1c1cccc(O)c1Cl (stereo not drawn) [Example 6]	200 nM	–	–
CCOC(=O)C1=C(COCCNC)NC(C)=C(C(=O)OC)C1c1ccccc1Cl.O=C(O)/C=C\C(=O)O (stereo not drawn) [Example 24, 4-(2-chlorophenyl)-2-[2-(N-methylamino)ethoxymethyl]-3-ethoxycarbonyl-5-methoxycarbonyl-6-methyl-1,4-dihydropyridine maleate]	–	most active compounds	IC50 [4]: 3.2 nM
CCOC(=O)C1=C(COCCN)NC(C)=C(C(=O)OC)C1c1ccccc1Cl.O=C(O)/C=C\C(=O)O (stereo not drawn) [Example 11, 2-[(2-aminoethoxy)methyl]-4-(2-chlorophenyl)-3-ethoxycarbonyl-5-methoxycarbonyl-6-methyl-1,4-dihydropyridine maleate]	–	most active compounds	IC50 [3]: 3.2 nM
CCOC(=O)C1=C(COCCN)NC(C)=C(C(=O)OC)C1c1ccccc1Cl (stereo not drawn) [Example 9]	3.2 nM	most active compounds	–
CCOC(=O)C1=C(COCCN)NC(C)=C(C(=O)OC)C1c1cccc(Cl)c1Cl (stereo not drawn) [Example 13]	6.3 nM	–	–
CCOC(=O)C1=C(COCCNC)NC(C)=C(C(=O)OC)C1c1c(F)cccc1Cl (stereo not drawn) [Example 7]	13 nM	–	–
CCOC(=O)C1=C(COCCNC)NC(C)=C(C(=O)OC)C1c1ccccc1Cl.O=C(O)C(=O)O (stereo not drawn) [Example 1, 4-(2-chlorophenyl)-2-[2-(methylamino)ethoxymethyl]-3-ethoxycarbonyl-5-methoxycarbonyl-6-methyl-1,4-dihydropyridine, oxalate salt]	3.2 nM	most active compounds	–
CCOC(=O)C1=C(COCCNCCOC)NC(C)=C(C(=O)OC)C1c1ccccc1Cl (stereo not drawn) [Example 10]	25 nM	–	–
CCOC(=O)C1=C(COCCNCc2ccccc2)NC(C)=C(C(=O)OC)C1c1ccccc1Cl (stereo not drawn) [Example 8]	50 nM	–	–
CCOC(=O)C1=C(COCCNC)NC(C)=C(C(=O)OC)C1c1ccccc1OC (stereo not drawn) [Example 4]	63 nM	–	–
CCOC(=O)C1=C(COCCNCC(N)=O)NC(C)=C(C(=O)OC)C1c1ccccc1Cl (stereo not drawn) [Example 19, 2-(2-{[4-(2-Chlorophenyl)-3-ethoxycarbonyl-5-methoxycarbonyl-6-methyl-1,4-dihydropyrid-2-yl]methoxy}ethylamino)acetamide]	4 nM	–	–
CCOC(=O)C1=C(COCCN)NC(C)=C(C(=O)OC)C1c1ccccc1F (stereo not drawn) [Example 15]	18 nM	–	–
CCOC(=O)C1=C(COCCNC)NC(C)=C(C(=O)OC)C1c1ccccc1Cl.O=C(O)/C=C\C(=O)O (stereo not drawn) [Example 23, 4-(2-Chlorophenyl)-2-[2-(N-methylamino)ethoxymethyl]-3-ethoxycarbonyl-5-methoxycarbonyl-6-methyl-1,4-dihydropyridine maleate]	–	most active compounds	IC50 [4]: 3.2 nM
CCOC(=O)C1=C(COCCN)NC(C)=C(C(=O)OC)C1c1ccccc1Cl (stereo not drawn) [Example 12, 2-[2-aminoethoxy)methyl]-4-(2-chlorophenyl)-3-ethoxycarbonyl-5-methoxycarbonyl-6-methyl-1,4-dihydropyridine maleate]	–	most active compounds	IC50 [4]: 3.2 nM
CCOC(=O)C1=C(COCCNC)NC(C)=C(C(=O)OC)C1c1cccc(Cl)c1 (stereo not drawn) [Example 5]	40 nM	–	–
